Our source for the Kd values is patent publication US6660755B2, “Substituted diaryl or diheteroaryl methans, ethers and amines having retinoid agonist, antagonist or inverse agonist type biological activity” (Allergan, Inc., priority 1997, dated 2003).

The target of one assay is T1, RARα (Homo sapiens, UniProt P10276).
T1 sequence (P10276 1-462): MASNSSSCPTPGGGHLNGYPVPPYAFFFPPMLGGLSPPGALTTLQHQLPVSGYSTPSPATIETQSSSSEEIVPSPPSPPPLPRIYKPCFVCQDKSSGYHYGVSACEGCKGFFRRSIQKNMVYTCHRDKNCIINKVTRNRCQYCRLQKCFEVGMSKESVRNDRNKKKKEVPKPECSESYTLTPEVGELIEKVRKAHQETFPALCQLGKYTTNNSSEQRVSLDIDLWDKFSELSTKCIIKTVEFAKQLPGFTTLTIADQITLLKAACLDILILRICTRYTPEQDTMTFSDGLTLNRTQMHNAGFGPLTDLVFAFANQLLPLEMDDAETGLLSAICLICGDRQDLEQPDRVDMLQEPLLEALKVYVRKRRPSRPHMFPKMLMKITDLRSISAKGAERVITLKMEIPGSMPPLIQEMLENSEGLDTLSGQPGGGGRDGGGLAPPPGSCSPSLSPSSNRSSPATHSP
In words: Ligand binding assay, RARα. The text has this:
(§1) A holoreceptor transactivation assay and a ligand binding assay which measure the antagonist/agonist like activity of the compounds of the invention, or their ability to bind to the several retinoid receptor subtypes, respectively, are described in published PCT Application No. WO WO93/11755 (particularly on pages 30-33 and 37-41) published on Jun. 24, 1993, the specification of which is also incorporated herein by reference. A detailed experimental procedure for holoreceptor transactivations has been described by Heyman et al. Cell 1992, 68, 397-406; Allegretto et al. J. Biol. Chem. 1993 268, 26625-26633, and Mangelsdorf et al. The Retinoids: Biology, Chemistry and Medicine, pp 319-349, Raven Press Ltd., New York, which are expressly incorporated herein by reference. The results obtained in this assay are expressed in EC50 numbers, as they are also in the chimeric receptor transactivation assay. The results of ligand binding assay are expressed in Kd numbers. (See Cheng et al. Biochemical Pharmacology 22, 3099-3108, expressly incorporated herein by reference.) Still another transactivation assay, the “PGR assay” is described in the publication Klein et al. J. Biol. Chem. 1996, 271, 22692-22696, which is expressly incorporated herein by reference, and a detailed description is also provided below. The results of the PGR assay are also expressed in EC50 numbers (nanomolar concentration).

The target in a further assay is T2, RARβ (Homo sapiens, UniProt P10826).
T2 sequence (P10826 1-455): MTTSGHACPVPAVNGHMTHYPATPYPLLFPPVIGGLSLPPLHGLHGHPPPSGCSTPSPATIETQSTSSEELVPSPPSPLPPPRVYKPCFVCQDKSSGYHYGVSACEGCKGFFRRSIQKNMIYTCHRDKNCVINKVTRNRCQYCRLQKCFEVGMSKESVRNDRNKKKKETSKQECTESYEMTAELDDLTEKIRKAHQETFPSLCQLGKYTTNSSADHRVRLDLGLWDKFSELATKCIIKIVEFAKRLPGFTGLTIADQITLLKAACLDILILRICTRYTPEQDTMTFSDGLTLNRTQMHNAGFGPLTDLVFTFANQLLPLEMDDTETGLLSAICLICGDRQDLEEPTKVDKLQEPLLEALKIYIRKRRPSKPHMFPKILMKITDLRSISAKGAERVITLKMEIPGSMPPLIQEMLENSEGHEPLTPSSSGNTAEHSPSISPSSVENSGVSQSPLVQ
In words: Ligand binding assay, RARβ. The note with it: read-out: Kd RABβ.
Excerpt: as §1

A further assay addresses T3, RARγ (Homo sapiens, UniProt P13631).
T3 sequence (P13631 1-454): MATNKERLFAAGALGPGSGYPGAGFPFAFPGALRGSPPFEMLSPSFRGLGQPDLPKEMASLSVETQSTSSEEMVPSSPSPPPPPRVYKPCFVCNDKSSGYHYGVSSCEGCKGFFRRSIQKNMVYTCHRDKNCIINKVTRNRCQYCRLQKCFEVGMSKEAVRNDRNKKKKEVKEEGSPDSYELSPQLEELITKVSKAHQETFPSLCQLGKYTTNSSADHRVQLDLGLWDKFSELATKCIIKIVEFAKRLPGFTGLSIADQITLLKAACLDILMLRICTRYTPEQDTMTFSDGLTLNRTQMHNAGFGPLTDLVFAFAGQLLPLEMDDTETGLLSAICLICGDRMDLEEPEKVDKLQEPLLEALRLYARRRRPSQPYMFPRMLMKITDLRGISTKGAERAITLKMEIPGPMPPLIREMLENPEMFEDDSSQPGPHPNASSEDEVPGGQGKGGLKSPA
The assay can be described thus: Ligand binding assay, RARγ.
Excerpt: as §1

Consider `Cc1ccc(Oc2cc(C#Cc3ccc(C(=O)O)cc3)ccc2C(C)(C)C)cc1` [Compound 30, 4-[[4′-tert-Butyl-3′-(4″-methyl)phenoxy]phenylethynyl]benzoic Acid], for which the dissociation constant (Kd) on RARα was 48 nM; on RARβ, 13 nM; at RARγ, 41 nM.
The like results for `CC(C)(C)c1ccc(/C=C/c2ccc(C(=O)O)cc2)cc1Oc1ccc(C(F)(F)F)cc1` [Compound 22, 4-[[4′-tert-Butyl-3′-(4″-trifluoromethyl)phenoxy]vinyl]benzoic Acid] were, in that order, 17 nM, 36 nM and 162 nM.
For `CC(C)(C)c1ccc(C#Cc2ccc(C(=O)O)c(F)c2)cc1Oc1ccc(I)cc1` [Compound 20, 4-[[4′-tert-Butyl-3′-(4″-iodo)phenoxy]phenylethynyl]-2-fluoro-benzoic Acid], the figures for the Kd on RARα, on RARβ and on RARγ were 22.5 nM, 16 nM and 84 nM, respectively.
The like results for `Cc1ccc(Oc2cc(/C=C/c3ccc(C(=O)O)cc3)ccc2C(C)(C)C)cc1` [Compound 15, 4-[[4′-tert-Butyl-3′-(4″-methyl)phenoxy]phenylvinyl]benzoic Acid] were, in that order, 12.5 nM, 0.8 nM and 33 nM.
As for `CCc1ccc(Oc2cc(C#Cc3ccc(C(=O)O)c(F)c3)ccc2C(C)(C)C)cc1` [Compound 25, 4-[[4′-tert-Butyl-3′-(4″-ethyl)phenoxy]phenylethynyl]-2-fluoro-benzoic Acid], the Kd was found to be 12 nM at RARα, 9 nM on RARβ and 22.5 nM at RARγ.
The like results for `Cc1ccc(Oc2cc(C#Cc3ccc(C(=O)O)c(F)c3)ccc2C(C)(C)C)cc1` [Compound 26, 4-[[4′-tert-Butyl-3′-(4″-methyl)phenoxy]phenylethynyl]-2-fluoro-benzoic Acid] were, in that order, 11 nM, 10 nM and 17 nM.
The like results for `CC(C)(C)c1ccc(C#Cc2ccc(C(=O)O)c(F)c2)cc1Oc1ccc(N=[N+]=[N-])cc1` [Compound 17, 4-[[4′-tert-Butyl-3′-(4″-azido)phenoxy]phenylethynyl]-2-fluoro-benzoic Acid] were, in that order, 20 nM, 24 nM and 18 nM.
With `CC(C)(C)c1ccc(C#Cc2ccc(C(=O)O)cc2)cc1Oc1ccc(C(F)(F)F)cc1` [Compound 3, 4-[[4′-tert-Butyl-3′-(4″-trifluoromethyl)phenoxy]phenylethynyl]benzoic Acid], the Kd is 90 nM at RARα, 44 nM on RARβ and 102 nM at RARγ.
The like results for `CC(C)(C)c1ccc(C#Cc2ccc(C(=O)O)c(F)c2)cc1Oc1ccc(C(F)(F)F)cc1` [Compound 4, 4-[[4′-tert-Butyl-3′-(4″-trifluoromethyl)phenoxy]phenylethynyl]-2-fluoro-benzoic Acid] were, in that order, 17 nM, 14.5 nM and 59 nM.
